Experimental findings from patent US9938240B2, “Fluorinated derivatives of 3-hydroxypyridin-4-ones” (Apotex Technologies Inc., priority 2009, dated 2018) are described below.

A short description of this assay: Benzoic acid hydroxylation assay. The settings on record: benzoic acid 1 mM, H2O2 6 mM, FeCl3 30 μM, chelator 30 μM, pH 7.4, up to 81 h. The text has this:
Benzoic acid is a hydroxyl radical scavenger and reacts with hydroxyl radical to give 2-hydroxy, 3-hydroxy and 4-hydroxybenzoic acids. The benzoic acid hydroxylation assay is a chemical assay designed to detect damage caused by hydroxyl radical (Dean and Nicholson, Free Radical Research 1994, vol 20, 83-101). For example, deferiprone suppresses the formation of hydroxybenzoic acids in the presence of iron salts and hydrogen peroxide, while EDTA and iron salts allow such hydroxylation reactions to take place.
This screening assay involves the use of iron salt, benzoic acid, hydrogen peroxide and the chelator and measures the ability of the chelator to inhibit the formation of hydroxybenzoate as an indicator to prevent hydroxyl radical formation in living system.
Briefly, this procedure is based on the ability of hydroxyl radicals to hydroxylate benzoate to give 2-, 3- and 4-hydroxylated benzoic acid products. Benzoic acid (1 mM) is incubated over time up to 81 h at room temperature in the dark in 10 mM phosphate buffer (pH 7.4) with 6 mM hydrogen peroxide, ferric chloride (30 μM) and the Fe chelator (30 μM). HPLC is the method of choice used to monitor and quantify the amount of 2-, 3- and 4-hydroxylated products formed over time in the reaction mixture, and can be verified against authentic benzoic acid and its hydroxylated products via their respective retention times and areas under curve. In addition, several controls are used: (i) a control without added Fe stock solution and Fe chelator; (ii) a control without added Fe chelator; (iii) EDTA as positive control; and (iv) deferiprone as negative control. The Fe-EDTA system is a hydroxyl radical generator and is known to promote hydroxylation of benzoic acid.

As for `CN(C)C(c1c(O)c(=O)ccn1C)C(F)(F)F` (stereo not shown) [Apo7041, 2-[1-(dimethylamino)-2,2,2-trifluoroethyl]-3-hydroxy-1-methylpyridin-4(1H)-one], the “hydroxylation of benzoic acid by Fe chelate” value is “do not promote the hydroxylation of benzoic acid”.
